The text below walks through data of ChEMBL document CHEMBL1201862, “PubChem BioAssay data set” (2004).

Counter-ions that a name gives are not always drawn.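 Compound exposure: 48 hours, 5 concentrations, 96-well plates. GI50 is the concentration that inhibits growth by half.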 The source made the active and inactive calls. Cut-off read from the data, not from the text of the source: active = GI50 up to about 1.1 µM and inactive = higher.

Among the test systems are OVCAR-5; RPMI-8226; NCI-H522; KM12; MDA-N; SNB-19; MDA-MB-435; A549; RXF 393; IGROV-1; OVCAR-3; COLO 205; UACC-257; SK-MEL-2; SF-268; NCI/ADR-RES; DU-145; HCT-15; T47D; A498.
Assay in all cases: NCI anticancer screen, dose series, 48 h

Take `COC1OC(CO)C(O)C(OC(=O)c2cc(O)c(O)c(O)c2)C1OC(=O)c1cc(O)c(O)c(O)c1` (stereo unspecified): the GI50 with OVCAR-5 is > 100 µM (inactive); in the test on RPMI-8226 it was > 100 µM (inactive); in the test with NCI-H522, 30.5 µM (inactive); in the test with KM12, > 100 µM (inactive); in the test on MDA-N, 25.1 µM (inactive); in the test on SNB-19, > 100 µM (inactive). Further, the GI50 in the test on MDA-MB-435 is 33.4 µM (inactive); in the test on A549 it was > 100 µM (inactive); in the test with RXF 393, > 100 µM (inactive); with IGROV-1, > 100 µM (inactive); with OVCAR-3 it was > 100 µM (inactive); in the test on COLO 205 it was 59.8 µM (inactive). Moreover, the GI50 in the test on UACC-257 was 95.3 µM (inactive); in the test with SK-MEL-2, > 100 µM (inactive); in the test with SF-268 it was 59.4 µM (inactive); in the test on NCI/ADR-RES, 60.4 µM (inactive); in the test with DU-145, > 100 µM (inactive); in the test with HCT-15 it was 66.2 µM.
`NNc1[nH]c(=S)[nH]c1C(N)=O`: the GI50 in the test with OVCAR-5, in the test with RPMI-8226, in the test with NCI-H522, with KM12, in the test with T47D and in the test on A498 was > 100 µM (inactive) throughout. The GI50 in the test with MDA-MB-435, with A549, with RXF 393, in the test on IGROV-1, in the test with OVCAR-3 and with COLO 205 was > 100 µM (inactive) in each case. For the same molecule, the GI50 in the test with UACC-257 was > 100 µM (inactive); with SK-MEL-2 it was > 100 µM (inactive); in the test with SF-268, > 100 µM (inactive); in the test on NCI/ADR-RES, > 100 µM (inactive); in the test on DU-145, > 100 µM (inactive); with HCT-15, over 100 µM.
As to `CCOP(=O)(OCC)C(c1ccc(F)cc1)N(C(=O)NC(F)(F)F)c1ccc(F)cc1` (stereo unspecified), the GI50 in the test on OVCAR-5, in the test on RPMI-8226, with NCI-H522, in the test with KM12, with MDA-N and with SNB-19 was > 100 µM (inactive) in each case. The GI50 in the test on MDA-MB-435, with A549, in the test on RXF 393, with IGROV-1, with OVCAR-3 and in the test with COLO 205 was > 100 µM (inactive) throughout. Besides, the GI50 is > 100 µM (inactive) in the test with UACC-257; > 100 µM (inactive) in the test with SF-268; > 100 µM (inactive) in the test with NCI/ADR-RES; > 100 µM (inactive) in the test with DU-145; over 100 µM in the test with HCT-15.
Consider `c1ccc(C(=NCCC2CNc3ccccc32)c2ccccc2)cc1` (stereo unspecified), for which the GI50 in the test on OVCAR-5, in the test on RPMI-8226, in the test with NCI-H522, in the test on KM12, in the test with A498 and in the test with MDA-N was > 100 µM (inactive) in each case. The GI50 is > 100 µM (inactive) with SNB-19; > 100 µM (inactive) in the test with MDA-MB-435; > 100 µM (inactive) in the test on A549; > 100 µM (inactive) in the test on RXF 393; 89.3 µM (inactive) in the test on IGROV-1; > 100 µM (inactive) in the test on OVCAR-3. The GI50 in the test with COLO 205 was > 100 µM (inactive); in the test on UACC-257, > 100 µM (inactive); in the test with SK-MEL-2, > 100 µM (inactive); with NCI/ADR-RES, > 100 µM (inactive); in the test on DU-145, > 100 µM (inactive); in the test with HCT-15, over 100 µM.
Consider `Cn1c(=O)oc2cc(C(=S)N3CCCCC3)ccc21`, for which the GI50 with OVCAR-5, in the test on RPMI-8226, in the test on KM12, in the test with A498, with MDA-N and with SNB-19 was > 100 µM (inactive) each time. The GI50 with MDA-MB-435, with RXF 393, in the test on IGROV-1, in the test on OVCAR-3, in the test with COLO 205 and in the test on UACC-257 was > 100 µM (inactive) each time. The GI50 is > 100 µM (inactive) in the test with SK-MEL-2; > 100 µM (inactive) in the test on SF-268; > 100 µM (inactive) in the test on NCI/ADR-RES; > 100 µM (inactive) in the test with DU-145; over 100 µM in the test on HCT-15.
`CCC1=CC2CN3CCc4c([nH]c5ccccc45)C(C(=O)OC)(C2)C13` (stereo unspecified): the GI50 in the test on OVCAR-5 is 7.4 µM (inactive); with RPMI-8226, 18.5 µM (inactive); in the test on NCI-H522, 45.7 µM (inactive); in the test with KM12 it was 20 µM (inactive); in the test on A498, 48.1 µM (inactive); with SNB-19 it was 46 µM (inactive). Moreover, the GI50 in the test on A549 is 47.6 µM (inactive); in the test with RXF 393 it was 35.7 µM (inactive); in the test with IGROV-1, 47.3 µM (inactive); with OVCAR-3, 42.8 µM (inactive); in the test with COLO 205, 39.4 µM (inactive); with UACC-257, 54.8 µM (inactive). Besides, the GI50 in the test on SK-MEL-2 was 67.8 µM (inactive); in the test on SF-268 it was 54.5 µM (inactive); with NCI/ADR-RES, 45.5 µM (inactive); in the test on HCT-15 it was 44.2 µM.
Turning to `O=c1c2cn[nH]c2nc2scc(-c3ccc(Cl)cc3)n12`, the GI50 in the test with OVCAR-5, with RPMI-8226, in the test on NCI-H522, in the test with KM12, in the test with T47D and with MDA-N was > 100 µM (inactive) in each case. Further, the GI50 with SNB-19, in the test with MDA-MB-435, in the test on A549, in the test with RXF 393, in the test with IGROV-1 and in the test with OVCAR-3 was > 100 µM (inactive) each time. Moreover, the GI50 in the test on COLO 205 was > 100 µM (inactive); in the test on UACC-257, > 100 µM (inactive); in the test on SK-MEL-2, 53.6 µM (inactive); in the test with SF-268 it was > 100 µM (inactive); in the test on NCI/ADR-RES, > 100 µM (inactive); with HCT-15, over 100 µM.
`COC(=O)Nc1nc(=O)c2cc(OC)c(OC)cc2[nH]1`: the GI50 in the test on OVCAR-5 is > 100 µM (inactive); in the test on NCI-H522, 2.37 µM (inactive); in the test on KM12, 5.31 µM (inactive); in the test with T47D it was 36 µM (inactive); with A498, 71.9 µM (inactive); in the test with MDA-N, 2.31 µM (inactive). Further, the GI50 in the test on SNB-19 is 36.4 µM (inactive); with A549, > 100 µM (inactive); with IGROV-1, 15.2 µM (inactive); with OVCAR-3, > 100 µM (inactive); with COLO 205 it was 4.4 µM (inactive); in the test with UACC-257, > 100 µM (inactive). In addition, the GI50 was > 100 µM (inactive) in the test with SK-MEL-2; > 100 µM (inactive) in the test on SF-268; 5.47 µM (inactive) in the test with NCI/ADR-RES; 32.7 µM (inactive) in the test on DU-145; 17.5 µM in the test with HCT-15.
`NC1=NC(c2ccccc2)CC(c2cc(Cl)cc(Br)c2O)=N1` (stereo unspecified): the GI50 in the test with OVCAR-5 is 19.6 µM (inactive); with RPMI-8226, 7.31 µM (inactive); in the test with NCI-H522, 3.79 µM (inactive); with KM12 it was 11 µM (inactive); with A498, 16.4 µM (inactive); with SNB-19, 17 µM (inactive). Besides, the GI50 in the test with A549 is 14.6 µM (inactive); with RXF 393 it was 4.36 µM (inactive); with IGROV-1 it was 14.5 µM (inactive); in the test on OVCAR-3 it was 15.8 µM (inactive); with COLO 205, 13 µM (inactive); with UACC-257, 14.7 µM (inactive). Also, the GI50 with SK-MEL-2 is 4.59 µM (inactive); in the test with SF-268, 11.7 µM (inactive); in the test with NCI/ADR-RES, 9.35 µM (inactive); with HCT-15 it was 7.64 µM.
For `Nc1ncnc2c(C3OC(CO)C(O)C3O)n[nH]c12` (stereo unspecified), the GI50 in the test with OVCAR-5 is 0.59 µM (active); with RPMI-8226, 0.159 µM (active); in the test on NCI-H522 it was 0.151 µM (active); in the test with KM12 it was 0.38 µM (active); in the test on A498, 0.484 µM (active); with SNB-19, 0.211 µM (active). Also, the GI50 with A549 was 0.428 µM (active); in the test on RXF 393, 0.201 µM (active); in the test with IGROV-1 it was 0.445 µM (active); with COLO 205, 2.42 µM (inactive); with SK-MEL-2 it was 0.0863 µM (active); with NCI/ADR-RES, 0.076 µM (active).
For the molecule `COc1ccc(-c2cc(O)c3cccnc3n2)cc1`, the GI50 is > 100 µM (inactive) in the test with OVCAR-5; 22.9 µM (inactive) with RPMI-8226; 41.1 µM (inactive) in the test with NCI-H522; 33.7 µM (inactive) in the test on KM12; 51.1 µM (inactive) in the test with T47D; 63.5 µM (inactive) in the test with A498. The GI50 in the test on SNB-19 was 78.5 µM (inactive); in the test on A549, 53.7 µM (inactive); in the test with RXF 393, 44.5 µM (inactive); in the test with IGROV-1, 26.7 µM (inactive); with COLO 205 it was 19.1 µM (inactive); in the test with UACC-257, 26.2 µM (inactive). The GI50 was 83.8 µM (inactive) in the test with SK-MEL-2; 40.6 µM (inactive) with SF-268; 47.6 µM (inactive) in the test on NCI/ADR-RES; 64.6 µM (inactive) in the test on DU-145; 34.3 µM with HCT-15.
For the molecule `CC[C@@]1(O)C(=O)OCc2c1cc1n(c2=O)Cc2cc3c(CN(C)C)c(O)ccc3nc2-1` [TOPOTECAN HYDROCHLORIDE], the GI50 in the test on OVCAR-5 is 0.121 µM (active); in the test with RPMI-8226, 0.276 µM (active); in the test with NCI-H522, 0.0306 µM (active); with KM12, 0.518 µM (active); in the test with T47D, 0.00571 µM (active); with A498 it was 0.11 µM (active). In addition, the GI50 in the test with SNB-19 was 0.0179 µM (active); with MDA-MB-435, 0.159 µM (active); in the test on A549 it was 0.0475 µM (active); in the test with RXF 393, 0.0395 µM (active); with IGROV-1, 0.141 µM (active); in the test with OVCAR-3, 0.24 µM (active). Besides, the GI50 is 0.293 µM (active) in the test on COLO 205; 0.0834 µM (active) with UACC-257; 0.0147 µM (active) in the test with SF-268; 0.193 µM (active) in the test with NCI/ADR-RES; 0.395 µM in the test with HCT-15.
